Key:
[1] = system: male Wistar fatty rats; assay: Oral glucose tolerance test (OGTT), hypoglycemic action; format: in vivo, rat; conditions: 10 mg/kg oral; for blood glucose lowering rate (%): OGTT in WF rats, decrease rate of AUC0-120min with control group as 100%, **p ≦ 0.01 vs control; for plasma glucose AUC0-120 min: 22-week-old WF rats fasted overnight, glucose 1 g/kg oral 60 min after compound, control group 32734.2
Experimental: A hypoglycemic action of the compound of the present invention was examined in an oral glucose tolerance test (OGTT) using male Wistar fatty rats (WF rat, TAKEDA RABICS).
First, 22-week-old WF rats fasted overnight were divided into groups (6 per group), and blood samples were collected and used as plasma samples before drug administration (−60 min). Thereafter, 0.5% methylcellulose (control group) and a test compound was orally administered at 10 mg/kg. At 60 min after compound administration, each individual was loaded by oral administration of glucose at 1 g/kg, and the blood was drawn before glucose loading (0 min) and 10, 30, 60 and 120 min after loading. The plasma glucose concentration was measured using L type Waco Glu2 (Wako) and Hitachi automatic analyzer 7080 (Hitachi Instruments Service Co., Ltd.). The 0-120 min area under time curve (AUC0-120min) and the decrease rate when the control group was 100% were calculated from the plasma glucose values measured.

[2] = target: T1, human GPR119 (Homo sapiens, UniProt Q8TDV5); assay: Human GPR119 agonist activity with increase of intracellular cAMP concentration as index (CRE-luciferase reporter assay in hGPR119/CRE-luc/CHO(dhfr-) cells); format: cell-based; conditions: 1 μM test compound, 2 hr incubation; luciferase activity with 10 μM N-[4-(methylsulfonyl)phenyl]-5-nitro-6-{4-[4-(trifluoromethoxy)phenoxy]piperidin-1-yl}pyrimidin-4-amine = 100%, DMSO = 0%
T1 construct: expressed in transfected cells
T1 sequence (Q8TDV5 1-335): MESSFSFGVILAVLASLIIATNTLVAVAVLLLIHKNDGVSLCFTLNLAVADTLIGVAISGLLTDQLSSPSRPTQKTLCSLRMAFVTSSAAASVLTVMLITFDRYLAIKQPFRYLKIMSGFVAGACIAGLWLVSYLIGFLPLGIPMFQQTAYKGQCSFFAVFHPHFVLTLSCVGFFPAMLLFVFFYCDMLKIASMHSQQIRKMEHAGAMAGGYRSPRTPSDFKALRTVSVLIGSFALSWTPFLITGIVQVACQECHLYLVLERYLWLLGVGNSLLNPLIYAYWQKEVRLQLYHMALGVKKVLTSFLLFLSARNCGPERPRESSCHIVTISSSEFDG
Experimental: Evaluation of Human GPR119 Agonist Activity with Increase of Intracellular Camp Concentration as Index
(1) Construction of Expression Plasmid of Human GPR119 Gene
Using High Fidelity RNA PCR Kit (Takara Bio Inc.), human GPR119 gene was cloned by PCR using cDNA library synthesized from human brain mRNA (Clontech) as a template and synthetic DNA having the following sequence. Primer 1 and Primer 2 were is prepared by adding cleavage sites for Sal I and Nhe I based on the base sequence information of human GPR119 gene.
PCR was performed using Pyrobest DNA polymerase (Takara Bio Inc.). The obtained PCR product was cloned to pUC118 (Takara Bio Inc.), and the base sequence was […] and digested with restriction enzymes Sal I, Nhe I. The obtained DNA fragment was inserted into an animal cell expression vector pAKKO-111H (plasmid same as pAKKO-1.111H described in Biochem. Biophys. Acta, Hinuma, S. et al., 1219, 251-259 (1994)) similarly digested with Sal I, Nhe I, whereby an expression plasmid pAKKO-111H/hGPR119 was prepared.
(2) Construction of Reporter Plasmid
Zeocin resistance gene was cloned by PCR using plasmid pcDNA3.1/Zeo (Invitrogen) as a template, synthetic DNA having the following sequences wherein cleavage sites for restriction enzymes Sal I and BamH I are added to before and after a region containing SV40 Ori and a region containing SV40pA, which are located at the upstream and downstream of Zeocin resistance gene of this plasmid, as a primer set, and KOD polymerase (TOYOBO).
The obtained PCR product was inserted into pCR-BluntII (Invitrogen). A fragment containing a Zeocine resistance gene obtained by digesting the plasmid with restriction enzymes Sal I and BamH I was inserted into plasmid pGL3(R2.2)-Basic Vector (promega) similarly digested with Sal I and Bam HI to give Zeocin resistance plasmid pGL3(R2.2)/Zeocin-Basic Vector.
A reporter plasmid containing 4 cAMP responsive elements (CRE) connected in tandem was prepared using the following 5′-terminal phosphorylated synthetic DNA.
First, a DNA fragment containing a CRE sequence obtained by annealing CRE-Upper and CRE-Lower and elongating with KOD polymerase was inserted into pCR-BluntII to give pCR-BluntII-CRE. A fragment cleaved from pCR-BluntII-CRE with restriction enzymes Kpn I and Hind III was inserted into pGL3(R2.2)/Zeocin-Basic Vector similarly digested with Kpn I and Hind III to give reporter plasmid pGL3(R2.2)/Zeocin-CRE-luc.
(3) Introduction of Human GPR119 Gene and Reporter Gene into CHO(dhfr-) Cells and Acquirement of Expressing Cell
CHO(dhfr-) cells in MEMα (minimum essential medium alpha) (Nikken bio medical laboratory) medium containing 10% fetal bovine serum, 100 U/mL penicillin and 100 μg/mL streptomycin (Invitrogen) were detached by a treatment with trypsin-EDTA (ethylenediaminetetraacetic acid) (Invitrogen), the cells were washed with PBS (Phosphate-buffered saline), centrifuged (1000 rpm, 5 min) and suspended in PBS at a cell density of 1×10^7 cells/mL. Then, DNA was introduced into the cell by a gene pulser (Bio-Rad) under the following conditions. That is, 1×10^7 cells, plasmid pGL3(R2.2)/Zeocin-CRE-luc (15 μg), which was obtained in (2) and linearized with BssH II, and pAKKO-111H (5 μg) were added in a 0.4 cm gap cuvette, and the mixture was electroporated at voltage […], capacitance 950 μF. The cells were placed in the above-mentioned medium, cultured for 24 hr, and the cells were detached and centrifuged. The cells were diluted to 250 cells/well, plated in a 96 well plate (Corning) and cultivated in a CO2 incubator at 37° C. to give a transformant. Then, forskolin was added to the obtained transformant and a strain (CRE-luc/CHO(dhfr-) cell) that induces luciferase expression was selected. […]

SMILES	GPR119 agonist activity (%) at 1 μM concentration [2] [%]	blood glucose lowering rate (%) [1]	plasma glucose AUC0-120 min [1] [mg·min/dL]
CC(C)SC(=O)N1CCC(Oc2cc(N3CCc4cc(S(C)(=O)=O)ccc43)ncn2)CC1 [Example 35, S-(1-methylethyl)4-({6-[5-(methylsulfonyl)-2,3-dihydro-1H-indol-1-yl]pyrimidin-4-yl}oxy)piperidine-1-carbothioate]	82	23.0** %	25212.5
CC(C)(C)OC(=O)N1CCC(n2ccc3c(N4CCc5cc(S(C)(=O)=O)ccc54)ncnc32)CC1 [Example 1, tert-butyl 4-{4-[5-(methylsulfonyl)-2,3-dihydro-1H-indol-1-yl]-7H-pyrrolo[2,3-d]pyrimidin-7-yl}piperidine-1-carboxylate]	62		
CC(C)(C)OC(=O)N1CC(Cn2ccc3c(N4CCc5cc(S(C)(=O)=O)ccc54)ncnc32)C1 [Example 14, tert-butyl 3-({4-[5-(methylsulfonyl)-2,3-dihydro-1H-indol-1-yl]-7H-pyrrolo[2,3-d]pyrimidin-7-yl}methyl)azetidine-1-carboxylate]	82		
CC(C)c1noc(N2CCC(N(c3cc(N4CCc5cc(S(C)(=O)=O)ccc54)ncn3)C(F)(F)F)CC2)n1 [Example 32, N-{1-[3-(1-methylethyl)-1,2,4-oxadiazol-5-yl]piperidin-4-yl}-6-[5-(methylsulfonyl)-2,3-dihydro-1H-indol-1-yl]-N-(trifluoromethyl)pyrimidin-4-amine]	92		
CC(C)(C)OC(=O)N1CCC(Cn2ccc3c(N4CCc5cc(S(C)(=O)=O)ccc54)ncnc32)C1 (stereo in doubt) [Example 12, tert-butyl (3S)-3-({4-[5-(methylsulfonyl)-2,3-dihydro-1H-indol-1-yl]-7H-pyrrolo[2,3-d]pyrimidin-7-yl}methyl)pyrrolidine-1-carboxylate]	84		
CC(C)OC(=O)N1CCC(n2ccc3c(N4CCc5cc(N6CCCC6=O)ccc54)ncnc32)CC1 [Example 10, 1-methylethyl 4-{4-[5-(2-oxopyrrolidin-1-yl)-2,3-dihydro-1H-indol-1-yl]-7H-pyrrolo[2,3-d]pyrimidin-7-yl}piperidine-1-carboxylate]	93		
CCc1cnc(N2CCC(Oc3cc(N4CCc5cc(C(=O)N(C)CCO)ccc54)ncn3)CC2)nc1 [Example 21, 1-(6-{[1-(5-ethylpyrimidin-2-yl)piperidin-4-yl]oxy}pyrimidin-4-yl)-N-(2-hydroxyethyl)-N-methyl-2,3-dihydro-1H-indole-5-carboxamide]	80		
CCc1cnc(N2CCC(Oc3cc(N4CCc5cc(C(=O)N6CCOCC6)ccc54)ncn3)CC2)nc1 [Example 27, [1-(6-{[1-(5-ethylpyrimidin-2-yl)piperidin-4-yl]oxy}pyrimidin-4-yl)-2,3-dihydro-1H-indol-5-yl](morpholin-4-yl)methanone]	77		

Second part, led by results:

GPR119 agonist activity (%) at 1 μM concentration [2] [%]	SMILES	blood glucose lowering rate (%) [1]	plasma glucose AUC0-120 min [1] [mg·min/dL]
79	CC(C)c1noc(N2CCC(Oc3cc(N4CCc5cc(S(C)(=O)=O)ccc54)ncn3)CC2)n1 [Example 38, 1-[6-({1-[3-(1-methylethyl)-1,2,4-oxadiazol-5-yl]piperidin-4-yl}oxy)pyrimidin-4-yl]-5-(methylsulfonyl)-2,3-dihydro-1H-indole]	24.8** %	24612.5
83	CC(C)SC(=O)N1CCC(Oc2cc(N3CCc4cc(S(C)(=O)=O)cc(F)c43)ncn2)CC1 [Example 62, S-(1-methylethyl) 4-({6-[7-fluoro-5-(methylsulfonyl)-2,3-dihydro-1H-indol-1-yl]pyrimidin-4-yl}oxy)piperidine-1-carbothioate]		
80	CC(C)c1noc(N2CCC(Oc3cc(N4CCc5cc(N6CCCC6=O)ccc54)ncn3)CC2)n1 [Example 46, 1-{1-[6-({1-[3-(1-methylethyl)-1,2,4-oxadiazol-5-yl]piperidin-4-yl}oxy)pyrimidin-4-yl]-2,3-dihydro-1H-indol-5-yl}pyrrolidin-2-one]		
82	CC(C)SC(=O)N1CCC(Oc2cc(N3CCc4cc(NC(=O)CO)ccc43)ncn2)CC1 [Example 54, S-(1-methylethyl) 4-[(6-{5-[(hydroxyacetyl)amino]-2,3-dihydro-1H-indol-1-yl}pyrimidin-4-yl)oxy]piperidine-1-carbothioate]		
82	CC(C)SC(=O)N1CCC(N(c2cc(N3CCc4cc(S(C)(=O)=O)ccc43)ncn2)C(F)(F)F)CC1 [Example 71, S-(1-methylethyl) 4-[{6-[5-(methylsulfonyl)-2,3-dihydro-1H-indol-1-yl]pyrimidin-4-yl}(trifluoromethyl)amino]piperidine-1-carbothioate]		
88	Cc1cnc(N2CCC(N(c3cc(N4CCc5cc(S(C)(=O)=O)ccc54)ncn3)C(F)(F)F)CC2)nc1 [Example 73, N-[1-(5-methylpyrimidin-2-yl)piperidin-4-yl]-6-[5-(methylsulfonyl)-2,3-dihydro-1H-indol-1-yl]-N-(trifluoromethyl)pyrimidin-4-amine]		
98	CCc1cnc(N2CCC(N(c3cc(N4CCc5cc(S(C)(=O)=O)ccc54)ncn3)C(F)(F)F)CC2)nc1 [Example 69, N-[1-(5-ethylpyrimidin-2-yl)piperidin-4-yl]-6-[5-(methylsulfonyl)-2,3-dihydro-1H-indol-1-yl]-N-(trifluoromethyl)pyrimidin-4-amine]		
87	CC(C)(C)SC(=O)N1CCC(Oc2cc(N3CCc4cc(S(C)(=O)=O)ccc43)ncn2)CC1 [Example 36, S-tert-butyl 4-({6-[5-(methylsulfonyl)-2,3-dihydro-1H-indol-1-yl]pyrimidin-4-yl}oxy)piperidine-1-carbothioate]		

Reference: US8410089B2, “Fused heterocyclic ring compound” (Takeda Pharmaceutical Company Limited, priority 2009, dated 2013)
